In patent US20190365743A1, “HEDGEHOG PATHWAY INHIBITION FOR TREATMENT OF HIGH-RISK BASAL CELL CARCINOMA OR HIGH-RISK BASAL CELL CARCINOMA NEVUS SYNDROME” (HEDGEPATH PHARMACEUTICALS, INC., priority 2018, published 2019):

Assay: plasma trough level of itraconazole required for clinical benefit, and side effects of high doses, in humans with cancer
Format: in vivo
Experimental: In particular, the minimum plasma trough level after 4 weeks of therapy required to have a clinically significant effect was at least 1000 ng/ml. […] These side effects associated with these high doses of itraconazole can be effectively managed by giving a selective mineralocorticoid antagonist, such as eplerenone. Accordingly, in some embodiments, the method further comprises administering eplerenone or other mineralocorticoid inhibitor.

SMILES: CCC(C)n1ncn(-c2ccc(N3CCN(c4ccc(OCC5COC(Cn6cncn6)(c6ccc(Cl)cc6Cl)O5)cc4)CC3)cc2)c1=O (centres unmarked) [itraconazole]
- side-effects peculiar to high doses (high doses giving plasma trough of at least 1000 ng/ml): hypertension, peripheral edema, and hypokalemia
- concentration at 4 weeks (human, plasma, after 4 weeks of therapy, humans with cancer, read-out: minimum plasma trough level required to have a clinically significant effect): ≥ 1000 ng/mL
